Source: EP0486702A1, “PHENYL 4-GUANIDINOBENZOATE DERIVATIVE, PROCESS FOR PRODUCING THE SAME, AND PROTEASE INHIBITOR CONTAINING THE SAME” (Asahi Kasei Kogyo Kabushiki Kaisha, priority 1990, dated 1991)
Structures can show the parent of a compound that is named as a salt. Where two headings read alike, the source gives them in different places.

Tests used:
factor Xa = factor Xa (Homo sapiens, UniProt P00742); assay: in vitro factor Xa inhibition, substrate Boc-Ile-Glu-Gly-Arg-7-amido-4-methylcoumalin; assay type: biochemical; conditions: 0.2 M Tris-HCl, 0.02 M CaCl2, 0.005% Triton X-100, pH 8.0, 25°C, 20 minutes
plasmin = plasmin (Homo sapiens, UniProt P00747); assay: in vitro plasmin inhibition, substrate Boc-Val-Leu-Lys-7-amido-4-methylcoumalin; assay type: biochemical
From the text: (§1) The method disclosed in JP-A-2-101017 was slightly modified and used for the measurement of the function of typical compounds belonging to the compound (I) of the present invention (Compounds 39, 3, 2, 26, 31 and 10) in terms of their in vitro activities to inhibit trypsin, thrombin, plasmin, factor Xa and elastase.
(§2) Substrate used for the enzyme reaction were: benzoyl-Arg-7-amido-4-methylcoumalin for trypsin, Boc-Val-Pro-Arg-7-amido-4-methylcoumalin for thrombin, Boc-Val-Leu-Lys-7-amido-4-methylcoumalin for plasmin, Boc-Ile-Glu-Gly-Arg-7-amido-4-methylcoumalin for factor Xa and methoxysuccinyl-Ala-Ala-Pro-Val-7-amido-4-methylcoumalin for elastase. […] Each enzyme reaction was carried out in 0.2 M Tris-HCl buffer supplemented with 0.02 M CaCl₂ and 0.005% Triton X-100 at pH 8.0 for trypsin, thrombin, plasmin and factor Xa or at pH 7.2 for elastase. Each sample solution to be measured was mixed with each enzyme solution and the reaction mixture was incubated at 25°C for 60 minutes in the case of trypsin or for 20 minutes in other cases of enzymes. In this instance, a compound disclosed in JP-A-51-138642 was used as a Comparative Example 1, and a compound disclosed in JP-A-63-165357 as a Comparative Example 2.

trypsin = molecular target: T1, trypsin (Bos taurus, UniProt P00760); assay: in vitro trypsin inhibition, fluorogenic substrate benzoyl-Arg-7-amido-4-methylcoumalin; assay type: biochemical; conditions: 0.2 M Tris-HCl, 0.02 M CaCl2, 0.005% Triton X-100, pH 8.0, 25°C, 60 minutes
T1 sequence (P00760 24-246): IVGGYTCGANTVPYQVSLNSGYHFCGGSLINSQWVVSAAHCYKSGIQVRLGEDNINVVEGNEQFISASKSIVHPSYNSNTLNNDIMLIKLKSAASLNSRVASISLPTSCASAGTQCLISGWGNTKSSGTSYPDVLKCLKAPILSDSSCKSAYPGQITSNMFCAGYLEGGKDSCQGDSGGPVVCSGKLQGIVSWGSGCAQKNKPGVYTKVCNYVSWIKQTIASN
From the text: as §1, §2

thrombin = thrombin (Homo sapiens, UniProt P00734); assay: in vitro thrombin inhibition, substrate Boc-Val-Pro-Arg-7-amido-4-methylcoumalin; assay type: biochemical; conditions: 0.2 M Tris-HCl, 0.02 M CaCl2, 0.005% Triton X-100, pH 8.0, 25°C, 20 minutes
male rats of Wistar line = assay: caerulein-induced acute pancreatitis edema, prevention by oral administration; assay type: in vivo; conditions: for Serum amylase / % Pancreas wt.: 15 minutes before caerulein (40 µg/kg i.p. twice); for Serum amylase: blood 6 hours after second caerulein; for % Pancreas wt.: pancreas wet weight to body weight, 6 hours after second caerulein
Procedure: […] Experiments were started at eight o'clock in the morning, with the animals in each group under satiation conditions. After measuring their body weights, caerulein pancreatitis was prepared by intraperitoneal administration of caerulein (mfd. by Kyowa Hakko K.K.) (40 μg/kg) twice at one hour interval. Six hours after the second administration, each rat was subjected to laparotomy to collect blood from the abdominal aorta and to excise the pancreas. […] Wet weight of the excised pancreas was measured and its ratio to the body weight was calculated. As a comparative example, the same process was repeated except that the inventive compound was replaced by the compound used in Pharmacological Trial 1 as Comparative Example 1, a compound which has been disclosed in JP-A-51-138642.

[1] = 0.2 M Tris-HCl, 0.02 M CaCl2, 0.005% Triton X-100, pH 8.0, 25°C, 20 minutes
[2] = 100 mg/kg oral, caerulein alone 817 ± 103
[3] = 100 mg/kg oral, caerulein alone 0.88 ± 0.07

Chain of factor Xa (P00742 235-488 limits assumed): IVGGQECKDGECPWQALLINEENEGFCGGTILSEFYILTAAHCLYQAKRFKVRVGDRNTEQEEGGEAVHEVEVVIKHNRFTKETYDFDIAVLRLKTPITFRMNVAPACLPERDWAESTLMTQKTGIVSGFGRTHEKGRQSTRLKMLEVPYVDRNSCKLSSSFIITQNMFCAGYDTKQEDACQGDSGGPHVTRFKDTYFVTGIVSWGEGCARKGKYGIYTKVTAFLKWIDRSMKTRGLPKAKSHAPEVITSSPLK
Chain of factor Xa (P00742 41-179 partner limits assumed): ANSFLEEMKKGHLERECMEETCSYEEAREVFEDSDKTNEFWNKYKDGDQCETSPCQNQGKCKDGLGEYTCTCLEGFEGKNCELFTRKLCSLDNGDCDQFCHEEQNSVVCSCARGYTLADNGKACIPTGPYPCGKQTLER
Chain of plasmin (P00747 581-810 limits assumed, species assumed): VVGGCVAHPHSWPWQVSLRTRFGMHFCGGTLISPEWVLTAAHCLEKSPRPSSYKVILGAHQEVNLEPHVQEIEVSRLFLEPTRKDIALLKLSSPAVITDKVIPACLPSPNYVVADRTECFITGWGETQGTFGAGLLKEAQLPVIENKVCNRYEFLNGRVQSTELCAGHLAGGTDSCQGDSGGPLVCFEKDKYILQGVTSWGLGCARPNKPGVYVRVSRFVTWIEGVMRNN
Chain of plasmin (P00747 97-580 partner limits assumed, species assumed): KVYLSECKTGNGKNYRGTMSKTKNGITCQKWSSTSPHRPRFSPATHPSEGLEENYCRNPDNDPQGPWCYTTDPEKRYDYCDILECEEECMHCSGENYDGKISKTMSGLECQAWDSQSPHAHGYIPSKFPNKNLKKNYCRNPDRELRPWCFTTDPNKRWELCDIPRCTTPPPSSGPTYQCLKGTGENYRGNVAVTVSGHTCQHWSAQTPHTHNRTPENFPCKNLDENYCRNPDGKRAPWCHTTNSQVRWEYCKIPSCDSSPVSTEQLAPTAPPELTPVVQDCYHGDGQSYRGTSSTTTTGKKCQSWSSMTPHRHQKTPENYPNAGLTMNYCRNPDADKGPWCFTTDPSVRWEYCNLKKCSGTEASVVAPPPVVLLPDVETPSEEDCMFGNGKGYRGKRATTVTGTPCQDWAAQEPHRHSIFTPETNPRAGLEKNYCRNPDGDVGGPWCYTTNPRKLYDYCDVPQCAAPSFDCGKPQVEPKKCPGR

Row | SMILES | IC50 (factor Xa) [nM] | IC50 (plasmin; [1]) [nM] | IC50 (trypsin) [nM] | IC50 (thrombin) [nM] | Serum amylase (male rats of Wistar line; 10 mg/kg oral, caerulein alone 817 ± 103, no treatment 134 ± 11) [IU/ml] | % Pancreas wt. (male rats of Wistar line; 10 mg/kg oral, caerulein alone 0.88 ± 0.07, no treatment 0.38 ± 0.06) [%] | Serum amylase (male rats of Wistar line; 50 mg/kg oral, caerulein alone 817 ± 103) [IU/ml] | % Pancreas wt. (male rats of Wistar line; 50 mg/kg oral, caerulein alone 0.88 ± 0.07) [%] | Serum amylase (male rats of Wistar line; [2]) [IU/ml] | % Pancreas wt. (male rats of Wistar line; [3]) [%] | histological observation of the pancreas (male rats of Wistar line; rat groups of 10, 50 and 100 mg oral doses, caerulein pancreatitis) | IC50 (plasmin) [nM] | histological observation of the pancreas (pancreatitis-specific signs) (male rats of Wistar line; rat group of 100 mg oral administration, caerulein pancreatitis)
1 | N=C(N)Nc1ccc(C(=O)Oc2cccc(OC(F)(F)F)c2)cc1 [Compound 2, 3-trifluoromethoxyphenyl 4-guanidinobenzoate] | 430 | 43 | 0.17 | 77 | – | – | – | – | – | – | – | – | –
2 | N=C(N)Nc1ccc(C(=O)Oc2cc(Cl)cc(OC(=O)C3CCCCC3)c2)cc1 [Compound 31, 3-chloro-5-cyclohexylcarbonyloxyphenyl 4-guanidinobenzoate] | 3600 | 10 | 0.47 | 580 | – | – | – | – | – | – | – | – | –
3 | CC1(C(=O)Oc2cc(Cl)cc(OC(=O)c3ccc(NC(=N)N)cc3)c2)CC1 [Compound 26, 3-chloro-5-(1-methylcyclopropylcarbonyloxy)phenyl 4-guanidinobenzoate methanesulfonic acid salt] | 340 | 15 | 0.25 | 69 | – | – | – | – | – | – | – | – | –
4 | CS(=O)(=O)O.N=C(N)Nc1ccc(C(=O)Oc2cc(Cl)cc(OS(=O)(=O)C=Cc3ccccc3)c2)cc1 [Compound 39, 3-chloro-5-(β-styrenesulfonyloxy)phenyl 4-guanidinobenzoate methanesulfonic acid salt] | 160 | 12 | 0.36 | 21 | 556 ± 31 | 0.99 ± 0.16 | 362 ± 15 | 0.66 ± 0.04 | 99 ± 17 | 0.39 ± 0.06 | no evident appearance of vacuoles inside the acinic cells, and the appearance of interstitial edema was almost negligible | – | –
5 | CON=C(C)c1cccc(OC(=O)c2ccc(NC(=N)N)cc2)c1 [Compound 10, 3-(1-methoxyiminoethyl)phenyl 4-guanidinobenzoate] | 2500 | 63 | 0.52 | 140 | – | – | – | – | – | – | – | – | –
6 | N=C(N)Nc1ccc(C(=O)Oc2cc(Cl)cc(Cl)c2)cc1 [Comp. Ex. 2, reference compound] | 8500 | 90 | 9.5 | 880 | – | – | – | – | – | – | – | – | –
7 | N=C(N)Nc1ccc(C(=O)Oc2ccc(OC(F)(F)F)cc2)cc1 [Compound 3, 4-trifluoromethoxyphenyl 4-guanidinobenzoate] | 440 | 18 | 0.84 | 39 | – | – | – | – | – | – | – | – | –
8 | CN(C)C(=O)COC(=O)Cc1ccc(OC(=O)c2ccc(NC(=N)N)cc2)cc1 [Comp. Ex. 1, reference compound] | 56000 | – | 25 | – | – | – | – | – | 216 ± 7 | 0.47 ± 0.09 | – | 120 | decrease in the pancreatitis-specific signs, but the reducing effects were inferior to those of Compound 39
